# Several values for one entry are separate records, joined by “and”; a condition that tells them apart may be missing. Equal values may be shown once. Read-outs that look alike come from different tables or passages of the source.
# Key:
# [1] = target: T1, hTRPV1 (Homo sapiens, UniProt Q8NER1); assay: TRPV1 HCS, Fluo-8 calcium flux, capsaicin activation, CHO cells expressing hTRPV1; format: cell-based
# T1 construct: CDS of NM_080704.4, inserted into the multiple cloning site of pcDNA3.1(+); host or cells: CHO/hKv7.2/3
# Description: Cell culture: Chinese hamster ovary (CHO) cell-line cells with constitutive expression of human hTRPV1 channels (B'SYS GmbH, Switzerland) were cultured in F-12 nutrient mixture (Biological Industries) supplemented with 10% fetal bovine serum (Biological Industries) and 1% penicillin-streptomycin (Biological Industries) in a humidified 5% CO2 incubator at 37° C. To maintain the stable expression of hTRPV1, antibiotic selection (G418 500 μg/ml) was applied.
# High content screen (HCS) using Fluo-8 No Wash Calcium flux Assay Kit: Fluo-8 No Wash Calcium Assay Kit (Abcam, ab112129) was used with CHO stably or transiently expressing TRPV1 to screen compounds against the hTRPV1 ion channel target. The cells were pre-loaded with Fluo-8AM which is membrane permeable. The AM groups of the Fluo-8AM were then being cleaved by intracellular esterase, trapping the Fluo8 in the cell. […] The relative fluorescence signal was calculated following background subtraction, comparing the fluorescence at each time point to its maximal level measured following Ionomycin application in the end.
# According to optimization process to achieve uniform and consistent screening condition of molecules the following protocol was established: Cells were seeded in 384-well, black-walled, clear-bottomed, at a density of 5,000 cells per well 24 h before the assay conductance and incubated overnight in their normal growth medium. On the experiment day the medium was replaced in each well with HBSS, HEPES, and compound/vehicle (0.2% DMSO). Dye solution (prepared according to the manufacturer) was added to the wells and plates are incubated for 1.5 h light-protected in room temperature. The Tecan Spark plate reader injectors were then primed with capsaicin and Ionomycin for channel activation and data normalization, respectively. […] To calculate IC50 values, the data was fitted to sigmoidal regression line using Prism GraphPad. The fitting was constrained to a minimum of 0 and a maximal response of about 1 unless a different maximal response could be identified.
# [2] = target: hERG (Homo sapiens, UniProt Q12809); assay: hERG HCS, FLIPR potassium assay, CHO/hERG; format: cell-based; design: host or cells: CHO; conditions: for hERG IC50 (inhibition in parentheses): at highest concentration shown
# Description: Cell culture: Chinese hamster ovary (CHO) cell-line cells with a constitutive expression of human hERG channels (B'SYS GmbH, Switzerland) were cultured in F-12 nutrient mixture (Biological Industries) supplemented with 10% fetal bovine serum (Biological Industries) and 1% penicillin-streptomycin (Biological Industries) in a humidified 5% CO2 incubator at 37° C. To maintain the hERG expression stability of the CHO cell line, antibiotics selection (G418 […] and Hygromycin 500) was applied.
# FLIPR Potassium Assay Kit: The FLIPR Potassium Assay Kit (R8222 FLIPR Potassium Assay Explorer Kits, Molecular Devices) was used with CHO/hERG cell line, for screening compounds against the hERG ion-channel off-target, as detailed hereinabove.
# According to optimization process, to achieve a uniform and consistent screening condition of molecules, the following protocol was established: Cells were seeded in 384-well, black-walled, clear-bottomed, at a density of 7,500 cells per well 24 hours before the assay conductance and incubated overnight in their normal growth medium. On the experiment day the medium was replaced with HBSS, HEPES, and the tested compound/vehicle (0.2% DMSO). Dye solution (prepared according to the manufacturer) was added to the wells and plates were incubated for 1.5 hour light-protected in room temperature. The Tecan Spark plate-reader injectors were primed with Tl+(1 mM Tl2SO4) or Tl++K+(1 mM Tl2SO4; 10 mM K2SO4) for channel activation and data correction. […]. To calculate IC50 values, the data was fitted to sigmoidal regression using Prism GraphPad.
# [3] = Kinetic solubility; format: physicochemical; conditions: for solubility kinetic: hhbs buffer, aqueous buffer
# Description: Solubility measurements were performed prior to each in vitro assay to ensure accurate dose response and reproducibility. Briefly, each compound was dissolved to 60 mM in DMSO and calibration curve was performed from 1.5-200 μM using absorbance spectra analysis and determination of λmax. Calibration curve served as the readout for all following assays. The 60 mM stock solution was used to make a 120 μM target concentration of 0.2% DMSO in the appropriate buffer of the in vitro related assay (i.e. HHBS buffer). Solubilized compounds were vortex for 10 minutes followed by centrifugation for 15 minutes in 5000 RPM and the supernatant was recovered for absorbance spectra analysis between 200-400 nm.
# [4] = tested on: rat DRG neurons; assay: Rat DRG neurons, capsaicin-evoked action potential firing; format: cell-based; conditions: for IC50: capsaicin 1 μM, read-out: Rat DRGs, CAP IC50
# From the text: rDRGs isolation and primary cell culture: Briefly, rat DRGs from all spinal levels were carefully removed and collected in HBSS on ices, connective tissue of the epineurium surrounding the ganglion was removed and cells were dissociated using Collagenase-II and trypsin dissociation solutions. DRGs were dissociated further, passed through glass Pasteur pipettes to obtain single cells. Then dissociation solution was changed to 5% FBS containing DRG neuronal culture medium and plated onto ECL coated 12 mm cover glass.
# Additional rDRGs experiments were performed using Lonza primary neonatal rat (Sprague Dawley neonatal; P2,3) DRG neurons (R-DRG-505, Lonza) plated and cultured according to the manufacturer.
# Electrophysiology: Cells were used for electrophysiological recording at least 48 hours following rDRG isolation or at least 5 days following cryopreserved rDRG thawing. Round small neurons (20-40 μm in diameter) were selected for electrophysiology recordings, to select for small nociceptive neurons that propagate pain sensation in vivo and that are expressing both Kv7.2/3 and TRPV1 targets. Membrane excitability was monitored using current clamp configuration of the whole-cell patch-clamp technique. Positive current steps of different amplitude were injected (400 ms) to induce spikes trains before and following compound application.
# To assess the potency of compounds using DRG neurons, the inhibitory potency for CAP-evoked action potential (AP) trains was measured. For this purpose, DRG membrane potential was continuously measured, and the following protocol was performed:
# Cells were perfused with vehicle containing bath solution. After 30 seconds, CAP (1 μM) was applied for 6 seconds to activate TRPV1 and stimulate AP trains.
# After 30 seconds of perfusion with bath solution containing only vehicle, perfusion was changed to a bath solution containing compound, and after 3 minutes of compound application, CAP (1 μM) was applied again for 6 seconds to activate TRPV1 and stimulate AP trains.
# Cells perfusion was changed back to bath solution containing only vehicle and after 3 minutes of compound washout, CAP (1 μM) was applied again for 6 seconds to activate TRPV1 and stimulate AP trains.
# To evaluate the drug/control response, the number of AP spikes induced by CAP following incubation with test compound was divided by the average number of control AP spikes induced without compound, before compound incubation, and following its washout.
# [5] = cells expressing TRPV1, read-out: TRPV1 IC50
# [6] = Table 1, read-out: Kinetic Sol.
# [7] = Tables 4 and 11, read-out: Kinetic Sol.
# T1 sequence (Q8NER1 whole entry): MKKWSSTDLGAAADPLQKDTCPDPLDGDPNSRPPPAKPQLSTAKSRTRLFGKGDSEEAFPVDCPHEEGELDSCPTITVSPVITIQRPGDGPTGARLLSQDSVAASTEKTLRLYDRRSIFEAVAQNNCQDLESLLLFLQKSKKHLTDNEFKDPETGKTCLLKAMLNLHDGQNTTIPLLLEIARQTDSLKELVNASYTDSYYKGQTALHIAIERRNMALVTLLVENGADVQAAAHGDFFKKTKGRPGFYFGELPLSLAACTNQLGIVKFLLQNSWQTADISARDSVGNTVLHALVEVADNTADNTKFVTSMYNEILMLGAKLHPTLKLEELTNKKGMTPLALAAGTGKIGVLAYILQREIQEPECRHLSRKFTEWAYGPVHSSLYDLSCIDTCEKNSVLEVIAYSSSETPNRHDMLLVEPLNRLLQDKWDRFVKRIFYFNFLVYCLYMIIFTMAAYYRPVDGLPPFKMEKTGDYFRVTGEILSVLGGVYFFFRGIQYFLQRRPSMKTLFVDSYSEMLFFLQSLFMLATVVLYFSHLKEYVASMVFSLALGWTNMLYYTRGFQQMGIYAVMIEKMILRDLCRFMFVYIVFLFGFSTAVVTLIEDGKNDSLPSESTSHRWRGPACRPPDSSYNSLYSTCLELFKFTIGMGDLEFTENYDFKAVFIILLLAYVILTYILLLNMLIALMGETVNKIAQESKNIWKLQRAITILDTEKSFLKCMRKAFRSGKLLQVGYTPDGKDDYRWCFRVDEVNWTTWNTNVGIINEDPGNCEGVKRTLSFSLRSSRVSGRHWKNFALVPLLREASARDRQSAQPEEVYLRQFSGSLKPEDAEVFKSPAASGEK
# Sequence of hERG (Q12809 whole entry): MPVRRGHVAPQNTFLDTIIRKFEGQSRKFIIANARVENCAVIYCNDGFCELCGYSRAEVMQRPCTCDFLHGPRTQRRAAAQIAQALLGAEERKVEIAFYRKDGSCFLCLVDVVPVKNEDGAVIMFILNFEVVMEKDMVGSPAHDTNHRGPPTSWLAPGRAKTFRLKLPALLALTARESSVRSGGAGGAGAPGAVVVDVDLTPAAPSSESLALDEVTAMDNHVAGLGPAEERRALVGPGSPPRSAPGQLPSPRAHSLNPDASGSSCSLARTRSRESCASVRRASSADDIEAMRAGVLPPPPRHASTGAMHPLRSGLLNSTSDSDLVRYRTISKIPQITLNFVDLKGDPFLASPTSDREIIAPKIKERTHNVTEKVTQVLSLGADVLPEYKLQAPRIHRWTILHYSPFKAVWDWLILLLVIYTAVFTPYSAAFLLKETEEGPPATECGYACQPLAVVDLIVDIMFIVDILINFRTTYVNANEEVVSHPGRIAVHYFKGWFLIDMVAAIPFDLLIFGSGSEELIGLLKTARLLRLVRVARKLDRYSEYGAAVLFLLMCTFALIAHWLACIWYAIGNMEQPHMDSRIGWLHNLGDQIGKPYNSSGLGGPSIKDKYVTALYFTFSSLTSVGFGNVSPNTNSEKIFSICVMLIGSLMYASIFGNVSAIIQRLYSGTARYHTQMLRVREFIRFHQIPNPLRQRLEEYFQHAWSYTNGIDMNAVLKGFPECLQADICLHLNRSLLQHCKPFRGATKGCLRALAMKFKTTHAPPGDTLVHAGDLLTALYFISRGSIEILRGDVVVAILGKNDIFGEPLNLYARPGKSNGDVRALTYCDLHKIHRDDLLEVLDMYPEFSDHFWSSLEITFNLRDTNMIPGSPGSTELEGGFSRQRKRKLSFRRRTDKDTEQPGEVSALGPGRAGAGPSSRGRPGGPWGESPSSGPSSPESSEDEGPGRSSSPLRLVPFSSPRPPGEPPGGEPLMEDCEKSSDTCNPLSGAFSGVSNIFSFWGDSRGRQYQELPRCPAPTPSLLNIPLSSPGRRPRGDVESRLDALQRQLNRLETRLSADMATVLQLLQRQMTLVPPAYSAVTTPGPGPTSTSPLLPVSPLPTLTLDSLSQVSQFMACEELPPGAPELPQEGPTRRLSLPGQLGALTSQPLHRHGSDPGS
IC50 [1] [nM],"IC50 [1, 5] [nM]","solubility kinetic [3, 6] [µM]",IC50 [4],"solubility kinetic [3, 7] [µM]",Structure (SMILES),"IC50 ([2]; Table 1, read-out: hERG IC50) [nM]",hERG IC50 (inhibition in parentheses) ([2]; Table 1) [%],IC50 ([2]; hERG IC50 HCS) [nM],further results
7800,7700,26.7,–,–,COC[C@@H](CO)NC(=O)Cc1cc(Sc2c(Cl)cc(F)cc2C(C)C)ccc1F [Compound 415],> 23000,0,–,–
–,8000,66,–,–,CC(C)c1cc(Cl)cc(Cl)c1C(=O)c1ccc(F)c(CC(=O)NCC(C)(C)O)c1 [Compound 417-4],> 35000,0,–,–
–,2100,–,< 100 nM,–,Cc1cn(-c2ccc(F)c(CC(=O)NCC(C)(C)O)c2)c2c(Cl)cc(Cl)cc12 [Compound 421-6],> 2500,0,–,Inhibition of capsaicin induced AP response ([4]; 100 nM): 63.4±17.8%; Inhibition of capsaicin induced AP response ([4]; 500 nM): 86.5±8.4%; Inhibition of AP response to capsaicin ([4]; 2 μM): 97.9±2.1%; Kinetic Sol. ([3]; Table 1): 3.4
1800,–,–,25 nM,3400,Cc1cn(-c2ccc(F)c(CC(=O)NCC(C)(C)O)c2)c2c(Cl)cc(Cl)cc12 [Compound 421],–,–,> 2500,IC50 ([4]; listed as BS421): 25 nM
–,1900,–,0.1 nM,–,O=C(Cc1cc(-n2cc(Cl)c3cc(Cl)cc(Cl)c32)ccc1F)NCCO [Compound 627],> 2500,0,> 2650,IC50 ([1]; read-out: CAP hTRPV1 IC50 HCS): 1900 nM; Inhibition of capsaicin-evoked action potential firing ([4]; 0.1 nM): about 50%; Inhibition of capsaicin-evoked action potential firing ([4]; 1 nM): completely blocked
19000,19300,40,0.003 nM and 0.002 nM and < 0.003 nM,37000,O=C(Cc1cncc(-n2cc(Cl)c3cc(Cl)cc(Cl)c32)c1)N[C@@H]1COC[C@H]1O [Compound 661],> 16600,0,18700,IC50 ([1]; read-out: CAP hTRPV1 IC50 HCS): 19100 nM; IC50 ([4]; listed as BS661): 0.002 nM; hERG activity [2]: no measurable activity at any concentration tested
8000,–,–,500 nM,–,"CC(C)c1cc(Cl)cc(Cl)c1Nc1ccc(F)c(CC(=O)NCC(C)(C)O)c1 [NH91, reference compound]",–,–,–,"solubility kinetic ([3]; Kinetic Sol., Tables 4 and 11): 20 µM; solubility kinetic ([3]; read-out: Kinetic solubility): 20 µM"

Structure (SMILES),IC50 [1] [nM],"IC50 [1, 5] [nM]","solubility kinetic [3, 6] [µM]",IC50 [4],"solubility kinetic [3, 7] [µM]","IC50 ([2]; Table 1, read-out: hERG IC50) [nM]",hERG IC50 (inhibition in parentheses) ([2]; Table 1) [%],IC50 ([2]; hERG IC50 HCS) [nM],further results
O=C(Cc1nccc(-n2cc(Cl)c3cc(Cl)cc(Cl)c32)n1)NC1COCC1O (stereo not drawn) [Compound 760],–,–,–,0.23 nM,57000,–,–,–,"Inhibition of capsaicin-evoked action potential firing ([4]; 1 nM): about 90%; hERG activity [2]: lacks any effect on hERG and Kv7.3/4/5 activity below 10 μM; IC50 ([2]; human, cho/herg cells, Thallium ions (Tl+) fluorescence, read-out: hERG EC50): 33400 nM; solubility kinetic ([3]; read-out: Kinetic solubility): 57 µM"

# Reference: patent publication US20260327211A1, “MODULATORS OF A POTASSIUM CHANNEL AND OF TRPV1 CHANNEL AND USES THEREOF” (Bsense Bio Therapeutics Ltd., priority 2023, published 2026)
